Legend:
Experiment in all cases: cells
Details in all cases: Homo sapiens
K5 = assay type: functional, cell-based
Description: SANGER: Inhibition of human K5 cell growth in a cell viability assay.

D283 Med = assay type: functional, cell-based
Description: SANGER: Inhibition of human D-283MED cell growth in a cell viability assay.

D-263MG = assay type: functional, cell-based
Description: SANGER: Inhibition of human D-263MG cell growth in a cell viability assay.

BT-474 = assay type: functional, cell-based
Description: SANGER: Inhibition of human BT-474 cell growth in a cell viability assay.

LS-123 = assay type: functional, cell-based
Description: SANGER: Inhibition of human LS-123 cell growth in a cell viability assay.

SH-4 = assay type: functional, cell-based;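 further: growth inhibition of SH-4 cells, read out with a cell viability assay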
Description: SANGER: Inhibition of human SH-4 cell growth in a cell viability assay.

J-RT3-T3-5 = assay type: functional, cell-based;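 further: cell viability assay measuring growth inhibition of human J-RT3-T3-5 cells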
Description: SANGER: Inhibition of human J-RT3-T3-5 cell growth in a cell viability assay.

SHP77 = assay type: functional, cell-based, SHP-77;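 further: growth inhibition of human SHP-77 cells measured by a cell viability assay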
Description: SANGER: Inhibition of human SHP-77 cell growth in a cell viability assay.

MLMA = assay type: functional, cell-based;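 further: growth inhibition of MLMA cells (human), determined through a cell viability readout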
Description: SANGER: Inhibition of human MLMA cell growth in a cell viability assay.

MOLT-4 = assay type: functional, cell-based;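 further: growth inhibition of MOLT-4 cells, determined with a cell viability readout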
Description: SANGER: Inhibition of human MOLT-4 cell growth in a cell viability assay.

CGTH-W-1 = assay type: functional, cell-based;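 further: growth inhibition of human CGTH-W-1 cells measured by cell viability assay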
Description: SANGER: Inhibition of human CGTH-W-1 cell growth in a cell viability assay.

ES3 = assay type: functional, cell-based;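 further: growth inhibition of ES3 cells, read out with a cell viability assay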
Description: SANGER: Inhibition of human ES3 cell growth in a cell viability assay.

KNS-42 = assay type: functional, cell-based;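 further: growth inhibition of KNS-42 cells, read out with a cell viability assay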
Description: SANGER: Inhibition of human KNS-42 cell growth in a cell viability assay.

LNCaP-Clone-FGC = assay type: functional, cell-based
Description: SANGER: Inhibition of human LNCaP-Clone-FGC cell growth in a cell viability assay.

COR-L88 = assay type: functional, cell-based;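 further: growth inhibition of COR-L88 cells, read out with a cell viability assay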
Description: SANGER: Inhibition of human COR-L88 cell growth in a cell viability assay.

HEL = assay type: functional, cell-based;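 further: growth inhibition of HEL cells, read out with a cell viability assay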
Description: SANGER: Inhibition of human HEL cell growth in a cell viability assay.

LB1047-RCC = assay type: functional, cell-based;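 further: inhibition of cell growth, determined with a cell viability assay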
Description: SANGER: Inhibition of human LB1047-RCC cell growth in a cell viability assay.

P30-OHK = assay type: functional, cell-based;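 further: growth inhibition of the P30-OHK cell line, read out with a cell viability assay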
Description: SANGER: Inhibition of human P30-OHK cell growth in a cell viability assay.

NTERA-2-cl-D1 = assay type: functional, cell-based;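 further: inhibition of cell growth, measured with a cell viability assay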
Description: SANGER: Inhibition of human NTERA-S-cl-D1 cell growth in a cell viability assay.

CCRF-CEM = assay type: functional, cell-based;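 further: inhibition of CCRF-CEM cell growth, measured by a cell viability assay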
Description: SANGER: Inhibition of human CCRF-CEM cell growth in a cell viability assay.

JVM-2 = assay type: functional, cell-based;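 further: growth inhibition of JVM-2 cells determined by a cell viability assay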
Description: SANGER: Inhibition of human JVM-2 cell growth in a cell viability assay.

OMC-1 = assay type: functional, cell-based;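 further: growth inhibition of the OMC-1 cell line, measured by a cell viability assay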
Description: SANGER: Inhibition of human OMC-1 cell growth in a cell viability assay.

LB373-MEL-D = assay type: functional, cell-based;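 further: growth inhibition of the cell line, read out in a cell viability assay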
Description: SANGER: Inhibition of human LB373-MEL-D cell growth in a cell viability assay.

SK-N-DZ = assay type: functional, cell-based;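 further: growth inhibition of the cancer cell line, read out through a viability assay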
Description: SANGER: Inhibition of human SK-N-DZ cell growth in a cell viability assay.

GCIY = assay type: functional, cell-based;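 further: growth inhibition of the human GCIY cell line, read out by a cell viability assay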
Description: SANGER: Inhibition of human GCIY cell growth in a cell viability assay.

SNU-C2B = assay type: functional, cell-based;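 further: cell viability readout used to measure compound-driven suppression of SNU-C2B cell proliferation, IC50 marking half-maximal growth inhibition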
Description: SANGER: Inhibition of human SNU-C2B cell growth in a cell viability assay.

NCI-H1648 = assay type: functional, cell-based;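 further: cell viability assay measuring inhibition of NCI-H1648 cell growth, from the Sanger screening data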
Description: SANGER: Inhibition of human NCI-H1648 cell growth in a cell viability assay.

EM-2 = assay type: functional, cell-based;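 further: growth inhibition of EM-2 cells, read out with a cell viability assay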
Description: SANGER: Inhibition of human EM-2 cell growth in a cell viability assay.

KNS-81-FD = assay type: functional, cell-based;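 further: growth inhibition of KNS-81-FD cells, read out with a cell viability assay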
Description: SANGER: Inhibition of human KNS-81-FD cell growth in a cell viability assay.

HCE-T = assay type: functional, cell-based;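 further: cell viability assay read-out, reporting inhibition of HCE-T cell growth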
Description: SANGER: Inhibition of human HCE-T cell growth in a cell viability assay.

8-MG-BA = assay type: functional, cell-based;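 further: growth inhibition of 8-MG-BA cells, read out with a cell viability assay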
Description: SANGER: Inhibition of human 8-MG-BA cell growth in a cell viability assay.

ES8 = assay type: functional, cell-based;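 further: growth inhibition of human ES8 cells, read out with a cell viability assay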
Description: SANGER: Inhibition of human ES8 cell growth in a cell viability assay.

U-266 = assay type: functional, cell-based
Description: SANGER: Inhibition of human U-266 cell growth in a cell viability assay.

EW-11 = assay type: functional, cell-based;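 further: growth inhibition of human EW-11 cells, measured with a cell viability assay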
Description: SANGER: Inhibition of human EW-11 cell growth in a cell viability assay.

GOTO = assay type: functional, cell-based;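 further: growth inhibition of GOTO cells, read out by a cell viability assay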
Description: SANGER: Inhibition of human GOTO cell growth in a cell viability assay.

GT3TKB = assay type: functional, cell-based;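 further: growth inhibition of the cell line, read out with a cell viability assay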
Description: SANGER: Inhibition of human GT3TKB cell growth in a cell viability assay.

GR-ST = assay type: functional, cell-based
Description: SANGER: Inhibition of human GR-ST cell growth in a cell viability assay.

KALS-1 = assay type: functional, cell-based;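 further: growth inhibition of KALS-1 cells, determined with a cell viability assay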
Description: SANGER: Inhibition of human KALS-1 cell growth in a cell viability assay.

KU812 cell line = assay type: functional, cell-based;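 further: growth inhibition of KU812 cells, read out with a cell viability assay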
Description: SANGER: Inhibition of human KU812 cell growth in a cell viability assay.

KURAMOCHI = assay type: functional, cell-based;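 further: growth inhibition of KURAMOCHI cells, read out with a cell viability assay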
Description: SANGER: Inhibition of human KURAMOCHI cell growth in a cell viability assay.

KY821 = assay type: functional, cell-based;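 further: growth inhibition of human KY821 cells, read out by a cell viability assay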
Description: SANGER: Inhibition of human KY821 cell growth in a cell viability assay.

EC-GI-10 = assay type: functional, cell-based
Description: SANGER: Inhibition of human EC-GI-10 cell growth in a cell viability assay.

NCI-H720 = assay type: functional, cell-based;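 further: growth inhibition of human NCI-H720 cells determined by a cell viability assay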
Description: SANGER: Inhibition of human NCI-H720 cell growth in a cell viability assay.

KS-1 = assay type: functional, cell-based;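 further: growth inhibition of KS-1 cells, read out with a cell viability assay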
Description: SANGER: Inhibition of human KS-1 cell growth in a cell viability assay.

BB65-RCC = assay type: functional, cell-based;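 further: growth inhibition of the cell line, measured with a cell viability assay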
Description: SANGER: Inhibition of human BB65-RCC cell growth in a cell viability assay.

EW-24 = assay type: functional, cell-based;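 further: human EW-24 cancer cell line, growth inhibition read out via a cell viability assay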
Description: SANGER: Inhibition of human EW-24 cell growth in a cell viability assay.

HCE-4 = assay type: functional, cell-based;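 further: cell viability assay measuring inhibition of growth in the human HCE-4 cell line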
Description: SANGER: Inhibition of human HCE-4 cell growth in a cell viability assay.

IST-MES1 = assay type: functional, cell-based;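 further: growth inhibition of IST-MES1 cells, measured with a cell viability assay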
Description: SANGER: Inhibition of human IST-MES1 cell growth in a cell viability assay.

DSH1 = assay type: functional, cell-based;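 further: growth inhibition of human DSH1 cells, measured with a cell viability readout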
Description: SANGER: Inhibition of human DSH1 cell growth in a cell viability assay.

LS-411N = assay type: functional, cell-based
KE-37 = assay type: functional, cell-based;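 further: growth inhibition of KE-37 cells, read out with a cell viability assay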
Description: SANGER: Inhibition of human KE-37 cell growth in a cell viability assay.

ALL-PO = assay type: functional, cell-based;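 further: growth inhibition of ALL-PO cells, read out by a cell viability assay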
Description: SANGER: Inhibition of human ALL-PO cell growth in a cell viability assay.

NCI-H23 = assay type: functional, cell-based;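 further: cell viability assay measuring growth inhibition of NCI-H23 cells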
Description: SANGER: Inhibition of human NCI-H23 cell growth in a cell viability assay.

NB5 = assay type: functional, cell-based;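 further: growth inhibition of NB5 cells, read out as cell viability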
Description: SANGER: Inhibition of human NB5 cell growth in a cell viability assay.

NMC-G1 = assay type: functional, cell-based;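 further: growth inhibition of the NMC-G1 cell line, measured with a cell viability read-out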
Description: SANGER: Inhibition of human NMC-G1 cell growth in a cell viability assay.

NEC8 = assay type: functional, cell-based;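 further: growth inhibition of human NEC8 cells, read out by a cell viability assay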
Description: SANGER: Inhibition of human NEC8 cell growth in a cell viability assay.

HOP-62 = assay type: functional, cell-based;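 further: cell growth inhibition determined with a viability assay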
Description: SANGER: Inhibition of human HOP-62 cell growth in a cell viability assay.

SCC-15 = assay type: functional, cell-based
Description: SANGER: Inhibition of human SCC-15 cell growth in a cell viability assay.

SBC-1 = assay type: functional, cell-based
Description: SANGER: Inhibition of human SBC-1 cell growth in a cell viability assay.

COLO-668 = assay type: functional, cell-based
Description: SANGER: Inhibition of human COLO-668 cell growth in a cell viability assay.

MSTO-211H = assay type: functional, cell-based
Description: SANGER: Inhibition of human MSTO-211H cell growth in a cell viability assay.

TK-10 = assay type: functional, cell-based
Description: SANGER: Inhibition of human TK10 cell growth in a cell viability assay.

C2BBe1 = assay type: functional, cell-based
Description: SANGER: Inhibition of human C2BBe1 cell growth in a cell viability assay.

RH-1 = assay type: functional, cell-based
Description: SANGER: Inhibition of human RH-1 cell growth in a cell viability assay.

NCI-H1650 = assay type: functional, cell-based
Description: SANGER: Inhibition of human NCI-H1650 cell growth in a cell viability assay.

Lu-65 = assay type: functional, cell-based
Description: SANGER: Inhibition of human LU-65 cell growth in a cell viability assay.

`CC[C@@]1(O)C(=O)OCc2c1cc1n(c2=O)Cc2cc3ccccc3nc2-1` [CAMPTOTHECIN] showed an IC50 (K5) of 0.0032 µM, an IC50 (D283 Med) of 0.0032 µM and an IC50 (D-263MG) of 0.00911 µM. The IC50 (BT-474) was greater than 0.1 µM, the IC50 (LS-123) was greater than 0.1 µM and the IC50 (SH-4) was 0.0598 µM. For the same compound, the IC50 (J-RT3-T3-5) was 0.00258 µM, the IC50 (SHP77) was greater than 0.1 µM and the IC50 (MLMA) was 0.00814 µM. The IC50 (MOLT-4) was 0.00162 µM, the IC50 (CGTH-W-1) was 0.00327 µM and the IC50 (ES3) was 0.000931 µM. For the same compound, the IC50 (KNS-42) was 0.0331 µM, the IC50 (LNCaP-Clone-FGC) was 0.031 µM and the IC50 (COR-L88) was 0.0409 µM. It also gave an IC50 (HEL) of 0.00631 µM, an IC50 (LB1047-RCC) of 0.0079 µM and an IC50 (P30-OHK) of 0.00279 µM. For the same compound, the IC50 (NTERA-2-cl-D1) was 0.000274 µM, the IC50 (CCRF-CEM) was 0.00555 µM and the IC50 (JVM-2) was greater than 0.1 µM. The IC50 (OMC-1) was 0.0782 µM, the IC50 (LB373-MEL-D) was 0.0912 µM and the IC50 (SK-N-DZ) was 0.0217 µM. The IC50 (GCIY) was 0.0661 µM, the IC50 (SNU-C2B) was 0.0354 µM and the IC50 (NCI-H1648) was 0.0381 µM. It also gave an IC50 (EM-2) of 0.00408 µM, an IC50 (KNS-81-FD) of 0.0194 µM and an IC50 (HCE-T) of 0.00547 µM. It also gave an IC50 (8-MG-BA) of 0.0015 µM, an IC50 (ES8) of 0.000796 µM and an IC50 (U-266) of 0.0695 µM. For the same compound, the IC50 (EW-11) was 0.00266 µM, the IC50 (GOTO) was 0.000706 µM and the IC50 (GT3TKB) was 0.00176 µM. For the same compound, the IC50 (GR-ST) was 0.000701 µM, the IC50 (KALS-1) was 0.0699 µM and the IC50 (KU812 cell line) was 0.00836 µM. For the same compound, the IC50 (KURAMOCHI) was greater than 0.1 µM, the IC50 (KY821) was 0.00812 µM and the IC50 (EC-GI-10) was 0.0079 µM. For the same compound, the IC50 (NCI-H720) was 0.0447 µM, the IC50 (KS-1) was 0.0579 µM and the IC50 (BB65-RCC) was 0.00185 µM. It also gave an IC50 (EW-24) of 0.00403 µM, an IC50 (HCE-4) of 0.00181 µM and an IC50 (IST-MES1) of 0.0106 µM. For the same compound, the IC50 (DSH1) was 0.0158 µM, the IC50 (LS-411N) was 0.0581 µM and the IC50 (KE-37) was 0.00154 µM. The IC50 (ALL-PO) was 0.00153 µM, the IC50 (NCI-H23) was 0.0407 µM and the IC50 (NB5) was 0.00192 µM. It also gave an IC50 (NMC-G1) of 0.0198 µM, an IC50 (NEC8) of 0.00311 µM and an IC50 (HOP-62) greater than 0.1 µM. The IC50 (SCC-15) was 0.0186 µM, the IC50 (SBC-1) was 0.0278 µM and the IC50 (COLO-668) was 0.0223 µM. The IC50 (MSTO-211H) was 0.00824 µM, the IC50 (TK-10) was 0.0558 µM and the IC50 (C2BBe1) was 0.00244 µM. It also gave an IC50 (RH-1) of 0.00386 µM.

In the case of `NC(=O)c1ncn([C@@H]2O[C@H](COP(=O)(O)O)[C@@H](O)[C@H]2O)c1N`, the IC50 (K5) is reported as greater than 2000 µM, the IC50 (D283 Med) is reported as greater than 2000 µM and the IC50 (D-263MG) is reported as greater than 2000 µM. It also gave an IC50 (BT-474) greater than 2000 µM, an IC50 (LS-123) of 690 µM and an IC50 (SH-4) greater than 2000 µM. The IC50 (J-RT3-T3-5) was greater than 2000 µM, the IC50 (SHP77) was greater than 2000 µM and the IC50 (MLMA) was 375 µM. The IC50 (MOLT-4) was 485 µM, the IC50 (CGTH-W-1) was greater than 2000 µM and the IC50 (ES3) was 1100 µM. It also gave an IC50 (KNS-42) greater than 2000 µM, an IC50 (LNCaP-Clone-FGC) greater than 2000 µM and an IC50 (HEL) of 804 µM. It also gave an IC50 (LB1047-RCC) greater than 2000 µM, an IC50 (P30-OHK) of 541 µM and an IC50 (NTERA-2-cl-D1) greater than 2000 µM. It also gave an IC50 (CCRF-CEM) greater than 2000 µM, an IC50 (JVM-2) greater than 2000 µM and an IC50 (OMC-1) greater than 2000 µM. The IC50 (LB373-MEL-D) was greater than 2000 µM, the IC50 (SK-N-DZ) was 1020 µM and the IC50 (SNU-C2B) was greater than 2000 µM. The IC50 (NCI-H1648) was greater than 2000 µM, the IC50 (EM-2) was 230 µM and the IC50 (NCI-H1650) was greater than 2000 µM. The IC50 (KNS-81-FD) was greater than 2000 µM, the IC50 (HCE-T) was 715 µM and the IC50 (8-MG-BA) was greater than 2000 µM. It also gave an IC50 (ES8) greater than 2000 µM, an IC50 (U-266) greater than 2000 µM and an IC50 (EW-11) of 1090 µM. It also gave an IC50 (GOTO) greater than 2000 µM, an IC50 (GT3TKB) greater than 2000 µM and an IC50 (Lu-65) greater than 2000 µM. For the same compound, the IC50 (GR-ST) was 431 µM, the IC50 (KALS-1) was 1160 µM and the IC50 (KURAMOCHI) was greater than 2000 µM. It also gave an IC50 (EC-GI-10) greater than 2000 µM, an IC50 (KS-1) of 1250 µM and an IC50 (BB65-RCC) of 1200 µM. The IC50 (EW-24) was greater than 2000 µM, the IC50 (HCE-4) was 1710 µM and the IC50 (DSH1) was greater than 2000 µM. It also gave an IC50 (LS-411N) greater than 2000 µM, an IC50 (KE-37) of 534 µM and an IC50 (ALL-PO) of 755 µM. The IC50 (NCI-H23) was greater than 2000 µM, the IC50 (NB5) was greater than 2000 µM and the IC50 (NMC-G1) was greater than 2000 µM. It also gave an IC50 (NEC8) greater than 2000 µM, an IC50 (HOP-62) greater than 2000 µM and an IC50 (SCC-15) of 466 µM. It also gave an IC50 (SBC-1) of 1400 µM, an IC50 (COLO-668) greater than 2000 µM and an IC50 (MSTO-211H) of 1740 µM. It also gave an IC50 (TK-10) greater than 2000 µM, an IC50 (C2BBe1) of 597 µM and an IC50 (RH-1) greater than 2000 µM.
